Tests used:
Test in all cases: Kinase profiling screen (radioactive filter-binding assay)
Assay type in all cases: biochemical
TBK1 = target: T1, TBK1 (Homo sapiens, UniProt Q9UHD2); conditions: 100 μM compound, 50 μM ATP; read-out: Kinase activity, % of activity in the absence of inhibitor
T1 sequence (Q9UHD2 1-729): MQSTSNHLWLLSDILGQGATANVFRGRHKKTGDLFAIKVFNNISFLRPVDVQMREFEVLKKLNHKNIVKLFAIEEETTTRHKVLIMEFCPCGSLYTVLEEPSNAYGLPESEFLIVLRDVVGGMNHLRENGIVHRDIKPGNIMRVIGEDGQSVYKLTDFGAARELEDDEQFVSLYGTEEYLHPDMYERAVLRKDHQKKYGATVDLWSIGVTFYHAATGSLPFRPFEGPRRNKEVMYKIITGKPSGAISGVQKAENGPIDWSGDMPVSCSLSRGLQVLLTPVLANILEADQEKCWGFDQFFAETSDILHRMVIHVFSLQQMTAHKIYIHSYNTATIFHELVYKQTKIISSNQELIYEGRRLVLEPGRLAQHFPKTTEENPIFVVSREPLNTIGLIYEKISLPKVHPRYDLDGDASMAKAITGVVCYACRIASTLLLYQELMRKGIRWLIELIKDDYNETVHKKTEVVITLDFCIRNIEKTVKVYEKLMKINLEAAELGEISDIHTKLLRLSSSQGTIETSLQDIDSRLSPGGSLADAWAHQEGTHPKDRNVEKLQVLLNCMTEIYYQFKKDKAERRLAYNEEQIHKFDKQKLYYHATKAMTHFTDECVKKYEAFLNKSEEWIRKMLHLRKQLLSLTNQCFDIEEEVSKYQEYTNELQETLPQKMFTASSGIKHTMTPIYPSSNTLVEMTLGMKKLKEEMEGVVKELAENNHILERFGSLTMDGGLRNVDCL
How it was run: (§1)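 Across 117 protein kinases, duplicate in vitro measurements were made with CoA, dpCoA and ADP present at 100 μM final. Each reaction used recombinant kinase, a model substrate and an optimal concentration of ATP.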

DYRK3 = target: T2, DYRK3 (Homo sapiens, UniProt O43781); conditions: 100 μM compound, 5 μM ATP; read-out: Kinase activity, % of activity in the absence of inhibitor
T2 sequence (O43781 1-588): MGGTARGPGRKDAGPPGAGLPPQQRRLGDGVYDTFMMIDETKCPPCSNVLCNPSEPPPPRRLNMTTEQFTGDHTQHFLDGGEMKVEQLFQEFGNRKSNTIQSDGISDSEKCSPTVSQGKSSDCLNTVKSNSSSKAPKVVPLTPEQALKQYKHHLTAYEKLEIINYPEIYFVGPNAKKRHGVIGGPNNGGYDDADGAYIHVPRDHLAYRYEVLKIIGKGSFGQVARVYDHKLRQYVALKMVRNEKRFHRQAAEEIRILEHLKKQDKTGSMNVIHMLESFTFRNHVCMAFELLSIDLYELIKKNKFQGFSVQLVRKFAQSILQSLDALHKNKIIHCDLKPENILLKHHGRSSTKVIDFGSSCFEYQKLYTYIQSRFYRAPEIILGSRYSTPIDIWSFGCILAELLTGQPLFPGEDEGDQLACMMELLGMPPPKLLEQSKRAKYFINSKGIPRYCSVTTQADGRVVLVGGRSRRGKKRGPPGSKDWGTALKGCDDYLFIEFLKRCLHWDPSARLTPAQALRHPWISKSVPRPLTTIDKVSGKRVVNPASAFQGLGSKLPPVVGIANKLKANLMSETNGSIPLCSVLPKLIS
How it was run: as §1

p38δ MAPK = target: T3, p38δ MAPK (Homo sapiens, UniProt O15264); conditions: 100 μM compound, 5 μM ATP; read-out: Kinase activity, % of activity in the absence of inhibitor
T3 sequence (O15264 1-365): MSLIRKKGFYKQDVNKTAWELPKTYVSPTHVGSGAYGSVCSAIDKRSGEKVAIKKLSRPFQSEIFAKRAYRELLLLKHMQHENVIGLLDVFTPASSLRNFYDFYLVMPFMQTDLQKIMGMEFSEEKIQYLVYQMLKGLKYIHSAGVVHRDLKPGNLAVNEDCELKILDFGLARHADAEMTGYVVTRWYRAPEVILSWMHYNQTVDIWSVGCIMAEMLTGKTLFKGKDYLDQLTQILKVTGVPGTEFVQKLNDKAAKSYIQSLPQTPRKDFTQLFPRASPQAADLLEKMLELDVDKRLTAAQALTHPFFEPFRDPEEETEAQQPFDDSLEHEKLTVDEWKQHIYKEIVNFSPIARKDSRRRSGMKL
How it was run: as §1

MARK3 = MARK3 (Homo sapiens, UniProt P27448); conditions: 100 μM compound, 5 μM ATP; read-out: Kinase activity, % of activity in the absence of inhibitor
How it was run: as §1

IKKε = target: T4, IKKε (Homo sapiens, UniProt Q14164); conditions: 100 μM compound, 50 μM ATP; read-out: Kinase activity, % of activity in the absence of inhibitor
T4 sequence (Q14164 1-716): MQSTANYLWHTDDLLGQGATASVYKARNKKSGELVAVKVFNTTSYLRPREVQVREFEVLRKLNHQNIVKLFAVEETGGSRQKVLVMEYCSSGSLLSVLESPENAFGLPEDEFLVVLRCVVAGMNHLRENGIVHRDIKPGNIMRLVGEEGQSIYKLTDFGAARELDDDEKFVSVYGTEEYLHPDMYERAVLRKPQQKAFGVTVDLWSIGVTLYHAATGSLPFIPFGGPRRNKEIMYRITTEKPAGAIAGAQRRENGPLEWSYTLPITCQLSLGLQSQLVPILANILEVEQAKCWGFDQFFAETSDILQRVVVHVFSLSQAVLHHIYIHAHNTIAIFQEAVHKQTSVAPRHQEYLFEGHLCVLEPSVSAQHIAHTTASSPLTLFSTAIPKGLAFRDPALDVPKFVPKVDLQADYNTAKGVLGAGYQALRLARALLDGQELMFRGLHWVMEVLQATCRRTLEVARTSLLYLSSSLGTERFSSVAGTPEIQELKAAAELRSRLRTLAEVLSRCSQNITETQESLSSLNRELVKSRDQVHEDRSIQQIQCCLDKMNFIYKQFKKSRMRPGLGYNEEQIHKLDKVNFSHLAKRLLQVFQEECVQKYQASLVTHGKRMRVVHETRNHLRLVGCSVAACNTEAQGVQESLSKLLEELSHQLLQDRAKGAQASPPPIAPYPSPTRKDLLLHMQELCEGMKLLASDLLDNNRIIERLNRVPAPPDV
How it was run: as §1

MARK3, sequence (P27448 whole entry): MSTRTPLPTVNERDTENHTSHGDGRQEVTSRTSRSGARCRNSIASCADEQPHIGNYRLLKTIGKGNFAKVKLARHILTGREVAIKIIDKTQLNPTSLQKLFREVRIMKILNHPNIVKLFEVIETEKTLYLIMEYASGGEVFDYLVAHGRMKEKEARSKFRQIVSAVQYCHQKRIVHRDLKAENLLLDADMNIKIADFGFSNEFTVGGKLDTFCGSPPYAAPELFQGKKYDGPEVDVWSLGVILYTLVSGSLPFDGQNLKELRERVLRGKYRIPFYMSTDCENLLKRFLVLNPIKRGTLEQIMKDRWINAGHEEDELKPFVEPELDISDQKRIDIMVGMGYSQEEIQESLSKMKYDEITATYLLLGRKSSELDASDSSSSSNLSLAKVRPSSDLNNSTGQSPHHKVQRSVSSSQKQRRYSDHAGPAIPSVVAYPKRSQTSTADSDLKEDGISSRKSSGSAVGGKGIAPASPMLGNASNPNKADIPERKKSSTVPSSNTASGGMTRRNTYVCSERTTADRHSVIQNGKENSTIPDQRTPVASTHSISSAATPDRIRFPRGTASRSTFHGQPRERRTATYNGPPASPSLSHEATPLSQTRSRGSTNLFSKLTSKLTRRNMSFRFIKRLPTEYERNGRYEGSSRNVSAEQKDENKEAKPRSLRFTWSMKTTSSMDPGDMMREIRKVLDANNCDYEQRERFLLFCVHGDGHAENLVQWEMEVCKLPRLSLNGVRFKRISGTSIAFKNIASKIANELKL

SMILES: Nc1ncnc2c1ncn2C1OC(COP(=O)(O)OP(=O)(O)O)C(O)C1O (stereo not drawn) [ADP]
- activity at 100 µM (TBK1): 95.1%
- activity at 100 µM (DYRK3): 16.2%
- activity at 100 µM (p38δ MAPK): 37.3%
- activity at 100 µM (MARK3): 14.8%
- activity at 100 µM (IKKε): 73.8%

SMILES: CC(C)(COP(=O)(O)OP(=O)(O)OC[C@H]1O[C@@H](n2cnc3c(N)ncnc32)[C@H](O)[C@@H]1OP(=O)(O)O)[C@@H](O)C(=O)NCCC(=O)NCCS [CoA, Coenzyme A]
- activity at 100 µM (TBK1): 106%
- activity at 100 µM (DYRK3): 95.1%
- activity at 100 µM (p38δ MAPK): 128%
- activity at 100 µM (MARK3): 88.9%
- activity at 100 µM (IKKε): 125%

SMILES: CC(C)(COP(=O)(O)OP(=O)(O)OCC1OC(n2cnc3c(N)ncnc32)C(O)C1O)C(O)C(=O)NCCC(=O)NCCS (stereo not drawn) [dpCoA, dephospho-CoA]
- activity at 100 µM (TBK1): 110%
- activity at 100 µM (DYRK3): 91.2%
- activity at 100 µM (p38δ MAPK): 71.3%
- activity at 100 µM (MARK3): 46.2%
- activity at 100 µM (IKKε): 91.4%

Source: publication PMC6812009, “Covalent Aurora A regulation by the metabolic integrator coenzyme A” (Redox Biology, 2019)
